Test results from a melting point compilation (Tetko et al.; mined from patent text by program, amines drawn as free bases though some values may be those of a salt).

| Structure (SMILES) | melting point [°C] |
| --- | --- |
| CCOc1ccc2c(=O)c(-c3nnnn3C)cn(C)c2c1 | 214 to 217 |
| CCN(CC)Cc1cc(C(=O)c2ccccc2)cc(C2CCCCC2)c1O | 106 to 107 |
| CC1(C)Cc2c(sc(N)c2C(N)=O)CO1 | 212 to 214 |
| Cc1ccccc1OCC1NCCS1 (stereo unspecified) | 66 to 68 |
| Oc1ccc(OCc2ccccc2)c(Cl)c1 | 49 to 51 |
| CCOc1cc2c(Nc3cc(OC)c(Cl)cc3Cl)c(C#N)cnc2cc1N | 230 to 233 |
| Cc1ccc2oc(=O)c(C(=O)Oc3cc([N+](=O)[O-])ccc3[N+](=O)[O-])cc2c1 | 225 to 229 |
| COc1ccc(-n2ncc(-c3ccc(S(C)(=O)=O)cc3)c(-c3ccc(F)cc3)c2=O)cc1F | 97 to 101 |
| O=Cc1ccc(CN2C(=O)c3ccccc3C2=O)c2ccccc12 | 190 to 192 |
| CCc1nc2ccccc2n1C1CCN(CCCNc2ccc(F)cc2)CC1 | 121 to 124 |
| COc1ccc(N(CC(=O)NCC(=O)O)C(=O)c2ccc(Cl)cc2)cc1 | 138 to 140 |
| Cc1cccc(N(C)C(=O)COc2cc(C(F)(F)F)no2)c1 | 54 to 55.5 |
| Cc1cn(-c2cccc(C3=Nc4ccc(-c5ccc(F)cc5)cc4NC(=O)C3)c2)cn1 | 215 |
| CCCCc1ccc(CCc2cc3c(s2)NC(=S)CN=C3c2ccccc2Cl)cc1 | 152 to 154 |
| CCOC(=O)c1ccc(Cl)nc1OCC | 33 to 35 |
| OCc1nn(-c2ccc(Cl)cc2)c2c1CCC2 | 149 to 150 |
| CCn1c(-c2cc3ccccc3[nH]2)nc(-c2ccncc2)c1-c1ccc(Cl)cc1 | 279 to 280 |
| O=S(CCCCF)CCCCCOc1ccc(C2=C(c3ccccc3)CCCc3cc(O)ccc32)cc1 (stereo unspecified) | 233 |
| CCCc1c(OCCCOc2c(C(C)=O)ccc(OCC(=O)OCC)c2CCC)ccc(C(C)=O)c1O | 45 to 46 |
| Cc1ccc(N2C=NC(=O)C23CCN(Cc2ccccc2)CC3)cc1 | 208 to 213 |
| Cc1cc(C2=C(c3cccc(F)c3)C(=O)C(C)(C)O2)ccc1S(C)(=O)=O | 138 to 139 |

| Structure (SMILES) | melting point [°C] |
| --- | --- |
| COc1cc(CC(=O)O)ccc1OCCCc1cn(-c2ccc(C(F)(F)F)cn2)nc1C(C)C | 134 to 135 |
| O=S(=O)(NCC1CCN(C[C@H]2COc3ccc(Br)cc3O2)CC1)c1cccc(Cl)c1Cl | 93 to 95 |
| COc1ccc(C(=O)CCC(=O)O)cc1Cl | 187 to 189 |
| O=C(Oc1ccccc1)[C@H]1O[C@@H]1C1CCCCC1 | 59 to 60 |
| CC(=O)Nc1nc(CCc2ccc(N)cc2)cs1 | 102 to 104 |
| Cc1ccnc(C(=O)c2[nH]c3cc(Cl)ccc3c2NC(=O)CN(C)C)c1 | 193 to 194 |
| COC(=O)C1Cc2c(ncn2Cc2ccccc2)CN1Cc1ccccc1 (stereo unspecified) | 91 to 93 |
| COC(=O)c1cc(-c2c(OC)cccc2OC)n(-c2ccc(NS(=O)(=O)c3ccc(C)cc3)cc2CC(C)C)n1 | 224 |
| CCCN(CCC)C(=O)CNc1nc(-c2ccccc2)nc(C(F)(F)F)c1Cl | 115 to 117 |
| Cc1cc(=O)n(-c2cccc(Cl)c2)c2[nH]n(-c3ccccc3)c(=O)c12 | 278 to 282 |
| O=C(CCCCCCCNC(=O)OCc1ccccc1)Nc1cccc(C(=O)O)c1 | 167 to 168 |
| Cc1cncc(COc2cccc(C(N)=O)c2)c1 | 152 to 154 |
| CCOc1c(C=C2CCn3c2nc2cc(NC(=O)C(=O)O)ccc2c3=O)cccc1OC | 220 to 222 |
| COc1cc(N)c(I)cc1C(=O)NC1(C)CCN(CCCOc2ccc(F)cc2)CC1 | 144 |
| Cc1cn(-c2cc(C=O)c(N)c(C(F)(F)F)c2)c(C)n1 | 200 to 202 |
| O=C(c1ccc2nonc2c1)N1CC2CC1CO2 (stereo unspecified) | 102 to 104 |
| Cc1[nH]cnc1CN1CCc2c(c3cccc(F)c3n2C)C1=O | 230 to 233 |
| CCOc1ccccc1NC(=O)C1Sc2ccc(Cl)cc2N(C)C1=O (stereo unspecified) | 124 to 126 |
| FC(F)=C(F)CCSc1nc(-c2ccc(Cl)cc2)no1 | 49 to 52 |
| CCOC(=O)C(=[N+]=[N-])C(=O)c1cc(OC)ccc1C1CCc2cc(OC)ccc21 (stereo unspecified) | 97 to 99 |
| CS(=O)(=O)OCC1COC(=O)N1c1ccc(Cl)cc1 (stereo unspecified) | 124 to 126 |

The remaining lines, values ahead:

| melting point [°C] | Structure (SMILES) |
| --- | --- |
| 205 to 209 | CCOC(=O)c1ccc2cc(-c3ccc(OC)cc3)ccn2c1=O |
| 89 | COC(=O)C(F)=CC1C(C(=O)O)C1(C)C (stereo unspecified) |
| 212 to 214 | CC1(c2onc(-c3ccc(O)cc3)c2-c2ccccc2)CC1 |
| 222 to 224 | CCS(=O)(=O)c1ccc(C(=O)NCc2ccc3c(c2)CN(C2CCC(=O)NC2=O)C3=O)cc1 (stereo unspecified) |
| 151 | NC(=O)N(O)Cc1cccc(C(O)C#Cc2ccsc2)c1 (stereo unspecified) |
| 125 to 126 | COc1cc(C)nc(-c2ccc(C=O)cc2)n1 |
| 131 to 133 | CN1CCN(CCCNc2cc(Oc3ccc4c(C(=O)Nc5cc(C(C)(C)C)nn5-c5ccc(F)cc5)cccc4c3)ncn2)CC1 |
| 129 to 130 | COc1ccc(CCC(=O)c2c(OC)cc(OC)c(CCC(C)C)c2OCC(=O)O)cc1O |
| 232 | CCOC(=O)C1=C(C)NC2=C(C(=O)OC2)C1c1cccs1 (stereo unspecified) |
| > 300 | CC(C)c1nc2ccn(Cc3ccccc3)c(=O)c2n1Cc1cccc(-c2ccc(C(=N)N)cc2)c1 |
| 148 | Cc1cc(-n2ccnc2)c2cccc(OCc3c(Cl)ccc(S(=O)(=O)N4CCOCC4)c3Cl)c2n1 |
| 285 to 287 | O=C(O)c1ccc2c(c1)C(=O)C(=Cc1ccccc1)O2 |
| 82 | Cc1c(CCCCCC(=O)O)cccc1C(=O)c1ccc(Cl)cc1 |
| 206 to 209 | COC(=O)Nc1nc2ccccc2n1-c1nc(N2CCOCC2)nc(N2CCOCC2)n1 |
| 58 to 60 | COc1ccc(F)cc1C(C)(C)CC(=O)C(=O)O |
| > 300 | N#CC(=Cc1cc(O)c(O)c(Cl)c1)C(=O)Nc1cccc(Cl)c1 |
| 229 to 231 | Cc1cnc(Sc2nc(C)c(CC(=O)O)s2)c(C(=O)O)c1 |
| > 275 | CC(=O)Nc1ccc(-c2cc(-c3nc4ccccc4c(=O)n3-c3cccc(C)c3)sc2N2CCOCC2)cc1 |
| 53 to 55 | Clc1ncc(C2CCCCC2)c2ccccc12 |
| 79.5 | CC(Cn1cncn1)c1ccc(Cl)cc1Cl (stereo unspecified) |
| 192 to 195 | Nc1cc(Nc2ccccc2)nc2c1ncn2C1OC(CO)C(O)C1O (stereo unspecified) |
| 186 | CCCC(c1ccc(NC(C)=O)cc1)n1ccnc1 (stereo unspecified) |
| 65 to 67 | COc1cccc(CCCNC(=O)C2CC2)c1 |
| 138 to 139 | Cc1cc(Cl)ccc1Oc1ccc(C(=O)C=CC(=O)O)cc1 |
| 153 to 154 | CCCCC(=NO)C(C)(C)NOC(CNC(C)(C)C(CC)=NO)Cn1ccnc1[N+](=O)[O-] (stereo unspecified) |
| 120 to 126 | COc1cc(Nc2nc3ccnc(-c4cccc(N)c4)c3o2)cc(OC)c1OC |
| 230 | Cc1cccc(C(=O)Nc2nc3ccccc3c(NCc3ccccc3)c2C#N)c1 |
| 163 to 168 | O=C(N1CCOCC1)N1CCN(CCNc2ncc3ncnc(Nc4ccc(F)c(Cl)c4)c3n2)CC1 |
| 162 to 163 | CC(C)(CO)NC(=O)Cc1ccc2c(c1)C(=O)c1sccc1CO2 |
